We go through eight compounds from patent publication EP0348509B1, “ANTI-RETROVIRAL DRUG” (TSUMURA & CO., priority 1987, dated 1989).

Each structure is given as a SMILES string. Values after ≈ are worked out from the molar mass of the structure shown.

One data set concerns RSV. SR-A strain. Description: Focus formation by RSV in primary chicken embryo fibroblasts. Type of data set: cell-based. Conditions: Rous sarcoma virus, Fibroblast, 192 h, number of foci, 8 days, read-out: IC₅₀. How it is done: A 24-well microplate was charged with 3.5 x 10⁵ cells per well of primary chicken embryo fibroblasts, and the fibroblasts were cultured at 37°C in an atmospher of 5% CO₂ for 6 hours. Then an RSV. SR-A strain having an infection multiplicity (M.O.I.) of about 2.0 x 10⁻⁴ and the test substance were added, and culturing was continued for further 2 hours. The cells were washed and the test substance and an agar culture medium were added, and then culturing was continued at 37°C in an atmospher of 5% CO₂ for further 8 days. The number of foci was counted, and the results are shown as IC₅₀ in Table 6.

In another data set the test system is HTLV-1. Description: HTLV-1 production by MT-2 cells (RNA hybridization with 32P-labelled HTLV-1 cDNA). Type of data set: cell-based. As to conditions: 4 days, compared with control. How it is done: The test substance and 1 x 10⁵ cells per well of MT-2 cells were charged in a 24-well microplate, and culturing was conducted for 4 days. Then the MT-2 cell suspension in each well was subjected to centrifugal separation, and the supernatant was extracted with phenol to obtain RNA of HTLV-1. This RNA and a known amount of HTLV-1 cDNA were plotted on a nitrocellulose paper, a comparative determination was carried out according to the hybridization using ³²P-labelled HTLV-1 cDNA, and the hydridization rate by the test substance was calculated by comparing the amount of the produced virus with that of the control.
The results are shown as the hybridization rate (%) in Table 7.

The conditions of data set [1]: intravenous administration; species not given; cited from earlier work.
Another data set has as its system HIV. The experiment in a line: Inhibition of modification of HIV-infected MT-2 cells (living cell count after 1 week). Format: cell-based. Conditions: 5 µg/ml added; MT-2 cells infected with HIV; living cells counted after 1 week. As to the method:
MT-2 cells were cultured at a concentration of 3 x 10⁴ cells/ml in a culture medium of RPMI 1640 (supplied by Gibco Co.) containing 10% FCS (supplied by Gibco Co.). After 2 days, the MT-2 cells were infected with HIV at a ratio of 200 cells per HIV, were distributed into groups to which 5 µg/ml of baicalein, quercetin or hesperetin was added and non-added groups (control groups), and the effect of the addition was determined.

The subject of data set [2] is male mice of the ddY line. Description: Acute toxicity by oral administration, mice. Type of data set: in vivo. Conditions: dose of 1 g/kg.
In data set [3] the test system is male rats of the Wistar line. The experiment in a line: Acute toxicity by oral administration, rats. Format: in vivo. As to conditions: dose of 1 g/kg.
The test system of a further data set is Reverse transcriptase. The experiment in a line: Inhibition of reverse transcriptase activity ([3H]dTTP incorporation into acid-insoluble fraction).

Procedure for Reverse transcriptase: OF TOKYO PRESS TOKYO/KARGER, BASEL, pp. 603-605 (1975)], and then a reaction mixture liquid having the following composition was prepared.
By "1 unit" is meant the unit of the relative activity of the reverse transcriptase required to consume 1 nmol of dNTP (deoxynucleic acid phosphate at 37°C for 1 hour.
Then the dry extract powder obtained in the above-mentioned Specific Example, baicalein, baicalin, quercetin or hesperetin and refined water were added to 20 ml of the above-mentioned reaction mixture liquid so that the total volume was 50 µl, the incorporation of the radioactivity of [³H]dTTP into the acid-insoluble fraction was measured by a Beckmann scintillation counter, and the percent inhibition was calculated as the reverse transcriptase activity with respect to each concentration.

As for `O=C1c2ccccc2C(=O)c2c1cc(S(=O)(=O)O)c(O)c2O` [Alizarine Red S], the IC50 in the data set on RSV. SR-A strain came out at 2.1 µg/mL (≈ 6.56 µM). Further, the “Hybridization Rate (%)” value in the data set on HTLV-1 (Amount Added 20 µg/ml) was found to be 61.7%. Also, the LD₅₀ in data set [1] was 70 mg/kg.
As for `O=C(O)CN(CC(=O)O)Cc1cc2c(c(O)c1O)C(=O)c1ccccc1C2=O` [alizarin complexon], the IC50 in the data set with RSV. SR-A strain turned out to be 4.3 µg/mL.
Take `O=C1c2ccccc2C(=O)c2c1ccc(O)c2O` [alizarin, 1,2-dihydroxyanthraquinone]: in data set [1], the LD₅₀ is 120 mg/kg.
As for `O=c1cc(-c2ccccc2)oc2cc(O)c(O)c(O)c12` [baicalein], in the data set with HIV, the “modification of MT-2 cells with HIV was inhibited at a ratio” value is recorded as “at least 90%”. For the same compound, the “acute toxicity (death)” value in data set [2] and in data set [3] was “no animal died” in each case. Moreover, the “Percent inhibition (%)” value was 29% in the data set on Reverse transcriptase (concentration 0.1 µg/ml); 35% with Reverse transcriptase (concentration 0.2 µg/ml); 74% with Reverse transcriptase (concentration 0.5 µg/ml); 92% with Reverse transcriptase (concentration 1 µg/ml); 98% in the data set with Reverse transcriptase (concentration 2 µg/ml); 100% in the data set with Reverse transcriptase (concentration 5 µg/ml). Further, the “Percent inhibition (%)” value in the data set on Reverse transcriptase (concentration 10 µg/ml) and with Reverse transcriptase (concentration 20 µg/ml) was 100% in each case.
In the case of `O=C(O)[C@H]1O[C@@H](Oc2cc3oc(-c4ccccc4)cc(=O)c3c(O)c2O)[C@H](O)[C@@H](O)[C@@H]1O` [baicalin], the “acute toxicity (death)” value in data set [2] and in data set [3] was “no animal died” each time. Besides, the “Percent inhibition (%)” value in the data set with Reverse transcriptase (concentration 1 µg/ml) turned out to be 19%; in the data set on Reverse transcriptase (concentration 2 µg/ml), 27%; with Reverse transcriptase (concentration 5 µg/ml), 73%; in the data set with Reverse transcriptase (concentration 10 µg/ml) it was 90%; in the data set with Reverse transcriptase (concentration 20 µg/ml), 100%.
As to `COc1ccc([C@@H]2CC(=O)c3c(O)cc(O)cc3O2)cc1O` [hesperetin], in the data set on HIV, the “modification of MT-2 cells with HIV was inhibited at a ratio” value was “at least 90%”. Also, the “acute toxicity (death)” value in data set [2] and in data set [3] was “no animal died” in each case. The “Percent inhibition (%)” value with Reverse transcriptase (concentration 1 µg/ml) was 99%; with Reverse transcriptase (concentration 2 µg/ml), 100%; with Reverse transcriptase (concentration 5 µg/ml) it was 100%; in the data set with Reverse transcriptase (concentration 10 µg/ml), 100%; in the data set with Reverse transcriptase (concentration 20 µg/ml), 100%; with Reverse transcriptase (concentration 50 µg/ml), 100%.
Turning to `O=C1c2ccccc2C(=O)c2c(O)c(O)cc(O)c21` [purpurin], the “Hybridization Rate (%)” value with HTLV-1 (Amount Added 5 µg/ml) amounted to 61.3%.
On to `O=c1c(O)c(-c2ccc(O)c(O)c2)oc2cc(O)cc(O)c12` [quercetin], for which the “modification of MT-2 cells with HIV was inhibited at a ratio” value in the data set with HIV is reported as “at least 90%”. For the same compound, the “acute toxicity (death)” value in data set [2] and in data set [3] was “no animal died” throughout. The “Percent inhibition (%)” value in the data set with Reverse transcriptase (concentration 1 µg/ml) is 77%; in the data set with Reverse transcriptase (concentration 2 µg/ml), 96%; with Reverse transcriptase (concentration 5 µg/ml), 99%; in the data set with Reverse transcriptase (concentration 10 µg/ml), 100%; with Reverse transcriptase (concentration 20 µg/ml), 100%; in the data set with Reverse transcriptase (concentration 50 µg/ml) it was 100%.
